From ChEMBL document CHEMBL5338717, “Discovery of novel PDE4 inhibitors targeting the M-pocket from natural mangostanin with improved safety for the treatment of Inflammatory Bowel Diseases” (Eur J Med Chem, 2022)
The source made the active and inactive calls. No cut-off for these calls is given here.

Key:
[1] = Selectivity index, ratio of IC50 for inhibition of recombinant PDE3A (679 to 1087 residues) (unknown origin) expressed in Escherichia coli BL21 to IC50 for inhibition of recombinant PDE4D2 (86 to 413 residues) (unknown origin) expressed in Escherichia coli BL21
[2] = target: Voltage-gated inwardly rectifying potassium channel KCNH2 (Homo sapiens, UniProt Q12809); experiment: Inhibition of human ERG; type: toxicity
Voltage-gated inwardly rectifying potassium channel KCNH2, sequence (Q12809 whole entry, the tested form may be a part): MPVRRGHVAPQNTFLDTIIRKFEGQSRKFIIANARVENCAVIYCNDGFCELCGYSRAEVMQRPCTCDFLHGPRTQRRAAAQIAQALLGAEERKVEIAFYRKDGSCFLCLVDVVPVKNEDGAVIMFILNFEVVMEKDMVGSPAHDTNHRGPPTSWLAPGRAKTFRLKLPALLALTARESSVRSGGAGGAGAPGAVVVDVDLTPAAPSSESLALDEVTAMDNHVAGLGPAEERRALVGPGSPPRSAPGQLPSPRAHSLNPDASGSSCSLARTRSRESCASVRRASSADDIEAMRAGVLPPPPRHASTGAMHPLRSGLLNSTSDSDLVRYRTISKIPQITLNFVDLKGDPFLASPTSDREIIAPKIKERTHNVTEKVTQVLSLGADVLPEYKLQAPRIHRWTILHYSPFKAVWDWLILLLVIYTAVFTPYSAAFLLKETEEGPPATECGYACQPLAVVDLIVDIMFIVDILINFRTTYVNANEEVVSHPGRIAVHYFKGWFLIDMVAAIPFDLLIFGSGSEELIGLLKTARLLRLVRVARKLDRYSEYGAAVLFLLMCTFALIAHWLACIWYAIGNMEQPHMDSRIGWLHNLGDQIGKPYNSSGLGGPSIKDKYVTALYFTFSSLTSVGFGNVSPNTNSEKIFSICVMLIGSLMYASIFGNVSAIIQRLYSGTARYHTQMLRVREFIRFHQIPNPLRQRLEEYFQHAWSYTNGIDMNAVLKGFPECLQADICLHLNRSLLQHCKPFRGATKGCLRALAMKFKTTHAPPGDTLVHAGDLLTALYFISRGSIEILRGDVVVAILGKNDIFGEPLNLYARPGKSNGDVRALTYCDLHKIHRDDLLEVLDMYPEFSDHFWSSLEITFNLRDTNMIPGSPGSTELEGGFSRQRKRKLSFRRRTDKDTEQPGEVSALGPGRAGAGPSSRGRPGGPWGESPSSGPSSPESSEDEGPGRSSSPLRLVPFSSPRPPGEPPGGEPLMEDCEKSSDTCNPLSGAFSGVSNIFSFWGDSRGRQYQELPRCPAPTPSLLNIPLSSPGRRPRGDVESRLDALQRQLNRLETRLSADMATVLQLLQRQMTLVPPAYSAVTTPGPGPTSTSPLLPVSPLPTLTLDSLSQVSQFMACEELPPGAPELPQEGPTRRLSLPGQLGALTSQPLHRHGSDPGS

[3] = target: cGMP-inhibited 3',5'-cyclic phosphodiesterase 3A (Homo sapiens, UniProt Q14432); experiment: Inhibition of recombinant PDE3A (679 to 1087 residues) (unknown origin) expressed in Escherichia coli BL21 using [3H]cAMP as substrate incubated for 15 mins by liquid scintillation method
cGMP-inhibited 3',5'-cyclic phosphodiesterase 3A, sequence (Q14432 whole entry, the tested form may be a part): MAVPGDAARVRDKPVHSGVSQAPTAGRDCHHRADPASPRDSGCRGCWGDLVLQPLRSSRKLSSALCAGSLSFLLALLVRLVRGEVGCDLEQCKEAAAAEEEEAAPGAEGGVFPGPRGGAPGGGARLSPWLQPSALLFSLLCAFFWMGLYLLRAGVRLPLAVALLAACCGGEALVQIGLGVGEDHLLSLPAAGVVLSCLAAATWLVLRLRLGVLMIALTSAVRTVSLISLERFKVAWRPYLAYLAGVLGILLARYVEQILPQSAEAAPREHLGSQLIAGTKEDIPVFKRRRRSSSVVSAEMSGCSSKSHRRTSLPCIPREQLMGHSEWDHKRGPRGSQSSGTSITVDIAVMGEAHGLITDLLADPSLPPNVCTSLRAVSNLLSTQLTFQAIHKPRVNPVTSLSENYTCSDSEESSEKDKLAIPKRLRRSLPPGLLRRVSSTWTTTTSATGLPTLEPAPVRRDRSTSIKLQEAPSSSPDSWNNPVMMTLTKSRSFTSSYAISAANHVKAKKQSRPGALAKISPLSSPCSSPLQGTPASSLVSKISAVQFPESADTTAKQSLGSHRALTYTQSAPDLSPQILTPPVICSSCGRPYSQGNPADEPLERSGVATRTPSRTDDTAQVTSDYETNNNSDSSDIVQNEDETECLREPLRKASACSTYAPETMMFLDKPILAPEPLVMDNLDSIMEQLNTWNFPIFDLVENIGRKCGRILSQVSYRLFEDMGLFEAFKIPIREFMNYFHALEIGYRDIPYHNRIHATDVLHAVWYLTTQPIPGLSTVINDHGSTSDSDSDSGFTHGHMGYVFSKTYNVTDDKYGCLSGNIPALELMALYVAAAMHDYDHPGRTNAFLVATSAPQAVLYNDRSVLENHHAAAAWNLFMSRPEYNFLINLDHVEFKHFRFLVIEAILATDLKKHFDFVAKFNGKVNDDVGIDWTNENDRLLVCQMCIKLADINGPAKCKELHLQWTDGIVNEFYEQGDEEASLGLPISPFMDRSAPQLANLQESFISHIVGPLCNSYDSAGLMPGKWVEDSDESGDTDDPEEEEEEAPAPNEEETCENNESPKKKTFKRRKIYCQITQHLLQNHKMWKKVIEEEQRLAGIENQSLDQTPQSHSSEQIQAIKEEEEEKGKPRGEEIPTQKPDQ

[4] = system: Mus musculus; experiment: Anti-inflammatory bowel disease activity in DSS-induced inflammatory bowel disease C57BL/6 mouse model assessed as decrease in IL-10 mRNA expression level in colon at 5 mg/kg, iv BID and measured after 8 days by real-time PCR analysis; type: functional, organism-based; settings: time 8.0 day
[5] = target: High affinity 3',5'-cyclic-AMP phosphodiesterase 7A (Homo sapiens, UniProt Q13946); experiment: Inhibition of recombinant PDE7A1 (130 to 482 residues) (unknown origin) expressed in Escherichia coli BL21 using [3H]cAMP as substrate incubated for 15 mins by liquid scintillation method
High affinity 3',5'-cyclic-AMP phosphodiesterase 7A, sequence (Q13946 whole entry, the tested form may be a part): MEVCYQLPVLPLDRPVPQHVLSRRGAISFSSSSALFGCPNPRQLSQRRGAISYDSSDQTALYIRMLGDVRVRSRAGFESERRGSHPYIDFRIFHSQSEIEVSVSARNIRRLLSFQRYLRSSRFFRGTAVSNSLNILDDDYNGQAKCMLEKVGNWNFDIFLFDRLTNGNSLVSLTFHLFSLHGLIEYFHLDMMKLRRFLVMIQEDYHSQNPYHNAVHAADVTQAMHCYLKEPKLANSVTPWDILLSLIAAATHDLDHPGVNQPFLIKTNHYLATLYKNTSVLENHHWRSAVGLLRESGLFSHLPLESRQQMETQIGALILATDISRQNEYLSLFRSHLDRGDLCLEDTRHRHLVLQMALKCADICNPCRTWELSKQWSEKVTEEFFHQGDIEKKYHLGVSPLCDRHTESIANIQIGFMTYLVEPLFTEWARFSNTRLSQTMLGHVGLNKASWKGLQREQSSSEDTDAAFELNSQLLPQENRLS

[6] = MRT(0 to 24 hrs) in Sprague-Dawley rat at 2.5 mg/kg, iv; type: ADME, organism-based; settings: in vivo
[7] = Selectivity index, ratio of IC50 for inhibition of PDE5A1 (535 to 860 residues) (unknown origin) expressed in Escherichia coli BL21 to IC50 for inhibition of recombinant PDE4D2 (86 to 413 residues) (unknown origin) expressed in Escherichia coli BL21
[8] = system: Mus musculus; experiment: Anti-inflammatory bowel disease activity in DSS-induced inflammatory bowel disease C57BL/6 mouse model assessed as decrease in loss of crypt architecture in colon at 5 mg/kg, iv BID and measured after 8 days by Haematoxylin and eosin staining based microscopy; type: functional, organism-based; settings: time 8.0 day
[9] = target: High affinity cAMP-specific and IBMX-insensitive 3',5'-cyclic phosphodiesterase 8A (Homo sapiens, UniProt O60658); experiment: Inhibition of recombinant PDE8A1 (480 to 828 residues) (unknown origin) expressed in Escherichia coli BL21 using [3H]cAMP as substrate incubated for 15 mins by liquid scintillation method
[10] = Selectivity index, ratio of IC50 for inhibition of recombinant PDE10A2 (449 to 770 residues) (unknown origin) expressed in Escherichia coli BL21 to IC50 for inhibition of recombinant PDE4D2 (86 to 413 residues) (unknown origin) expressed in Escherichia coli BL21
[11] = system: Mus musculus; experiment: Anti-inflammatory bowel disease activity in DSS-induced inflammatory bowel disease C57BL/6 mouse model assessed as decrease in goblet cells in colon at 5 mg/kg, iv BID and measured after 8 days by Haematoxylin and eosin staining based microscopy; type: functional, organism-based; settings: time 8.0 day
[12] = target: Dual specificity calcium/calmodulin-dependent 3',5'-cyclic nucleotide phosphodiesterase 1C (Homo sapiens, UniProt Q14123); experiment: Inhibition of recombinant PDE1C (147 to 531 residues) (unknown origin) expressed in Escherichia coli BL21 using [3H]cGMP as substrate incubated for 15 mins by liquid scintillation method
Dual specificity calcium/calmodulin-dependent 3',5'-cyclic nucleotide phosphodiesterase 1C, sequence (Q14123 whole entry, the tested form may be a part): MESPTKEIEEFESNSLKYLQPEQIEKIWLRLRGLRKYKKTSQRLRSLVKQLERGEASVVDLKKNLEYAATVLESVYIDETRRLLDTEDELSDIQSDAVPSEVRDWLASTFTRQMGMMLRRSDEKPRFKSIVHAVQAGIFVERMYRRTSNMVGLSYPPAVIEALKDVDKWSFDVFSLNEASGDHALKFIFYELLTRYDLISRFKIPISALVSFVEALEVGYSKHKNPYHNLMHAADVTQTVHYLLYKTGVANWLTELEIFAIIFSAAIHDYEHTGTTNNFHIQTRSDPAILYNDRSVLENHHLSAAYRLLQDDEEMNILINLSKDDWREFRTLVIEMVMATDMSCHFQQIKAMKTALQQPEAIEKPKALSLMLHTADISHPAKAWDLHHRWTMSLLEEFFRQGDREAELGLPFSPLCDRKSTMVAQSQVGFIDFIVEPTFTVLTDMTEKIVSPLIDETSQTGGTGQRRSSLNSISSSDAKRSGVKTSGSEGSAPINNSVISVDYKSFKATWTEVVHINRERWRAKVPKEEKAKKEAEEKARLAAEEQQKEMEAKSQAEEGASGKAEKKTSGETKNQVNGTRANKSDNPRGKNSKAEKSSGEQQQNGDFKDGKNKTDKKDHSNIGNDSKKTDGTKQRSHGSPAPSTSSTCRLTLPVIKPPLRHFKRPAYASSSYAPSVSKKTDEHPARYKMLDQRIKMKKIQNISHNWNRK

[13] = Metabolic stability in rat liver microsomes assessed as half life; type: ADME, Microsome
[14] = Elimination half life in Sprague-Dawley rat at 2.5 mg/kg, iv; type: ADME, organism-based; settings: in vivo, read-out: beta t1/2 (converted)
[15] = target: Cytochrome P450 2C9 (Homo sapiens, UniProt P11712); experiment: Inhibition of human CYP2C9 in human hepatocytes; type: ADME, cell-based, Hepatocyte
Cytochrome P450 2C9, sequence (P11712 whole entry, the tested form may be a part): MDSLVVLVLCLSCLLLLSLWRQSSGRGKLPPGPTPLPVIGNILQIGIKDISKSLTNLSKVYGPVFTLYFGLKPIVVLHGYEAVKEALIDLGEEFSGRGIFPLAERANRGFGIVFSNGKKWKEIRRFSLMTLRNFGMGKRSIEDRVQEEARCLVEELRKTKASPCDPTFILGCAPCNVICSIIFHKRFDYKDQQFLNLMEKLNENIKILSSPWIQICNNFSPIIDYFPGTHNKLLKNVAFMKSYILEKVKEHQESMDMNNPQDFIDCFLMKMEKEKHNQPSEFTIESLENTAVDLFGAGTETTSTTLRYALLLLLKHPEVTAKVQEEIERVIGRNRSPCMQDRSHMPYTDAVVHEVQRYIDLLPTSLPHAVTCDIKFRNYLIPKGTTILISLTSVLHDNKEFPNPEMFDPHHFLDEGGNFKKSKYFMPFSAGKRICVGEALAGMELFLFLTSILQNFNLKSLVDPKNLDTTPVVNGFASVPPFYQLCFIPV

[16] = Selectivity index, ratio of IC50 for inhibition of recombinant PDE8A1 (480 to 828 residues) (unknown origin) expressed in Escherichia coli BL21 to IC50 for inhibition of recombinant PDE4D2 (86 to 413 residues) (unknown origin) expressed in Escherichia coli BL21
[17] = system: Mus musculus; experiment: Anti-inflammatory bowel disease activity in DSS-induced inflammatory bowel disease C57BL/6 mouse model assessed as decrease in TNF-alpha mRNA expression level in colon at 5 mg/kg, iv BID and measured after 8 days by real-time PCR analysis; type: functional, organism-based; settings: time 8.0 day
[18] = target: T1, Cytochrome P450 1A2 (Homo sapiens, UniProt P05177); experiment: Inhibition of human CYP1A2 in human hepatocytes; type: ADME, cell-based, Hepatocyte
T1 sequence (P05177 whole entry): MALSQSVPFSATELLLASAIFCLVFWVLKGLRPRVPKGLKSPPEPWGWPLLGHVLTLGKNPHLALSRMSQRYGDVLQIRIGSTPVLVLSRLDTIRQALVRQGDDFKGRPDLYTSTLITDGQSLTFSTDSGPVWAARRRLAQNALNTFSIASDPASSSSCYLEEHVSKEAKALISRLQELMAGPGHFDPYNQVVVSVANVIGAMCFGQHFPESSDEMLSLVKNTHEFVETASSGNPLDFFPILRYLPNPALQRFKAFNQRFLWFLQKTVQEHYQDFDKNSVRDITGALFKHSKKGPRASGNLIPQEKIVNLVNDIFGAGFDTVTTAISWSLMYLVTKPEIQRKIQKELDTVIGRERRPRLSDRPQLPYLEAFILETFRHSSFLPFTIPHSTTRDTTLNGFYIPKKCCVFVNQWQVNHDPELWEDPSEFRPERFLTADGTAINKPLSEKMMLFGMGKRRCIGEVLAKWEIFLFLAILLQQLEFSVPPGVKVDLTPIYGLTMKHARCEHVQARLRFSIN

[19] = system: Mus musculus; experiment: Anti-inflammatory bowel disease activity in DSS-induced inflammatory bowel disease C57BL/6 mouse model assessed as decrease in epithelial damage in colon at 5 mg/kg, iv BID and measured after 8 days by Haematoxylin and eosin staining based microscopy; type: functional, organism-based; settings: time 8.0 day
[20] = target: cAMP and cAMP-inhibited cGMP 3',5'-cyclic phosphodiesterase 10A (Homo sapiens, UniProt Q9Y233); experiment: Inhibition of recombinant PDE10A2 (449 to 770 residues) (unknown origin) expressed in Escherichia coli BL21 using [3H]cAMP as substrate incubated for 15 mins by liquid scintillation method
cAMP and cAMP-inhibited cGMP 3',5'-cyclic phosphodiesterase 10A, sequence (Q9Y233 whole entry, the tested form may be a part): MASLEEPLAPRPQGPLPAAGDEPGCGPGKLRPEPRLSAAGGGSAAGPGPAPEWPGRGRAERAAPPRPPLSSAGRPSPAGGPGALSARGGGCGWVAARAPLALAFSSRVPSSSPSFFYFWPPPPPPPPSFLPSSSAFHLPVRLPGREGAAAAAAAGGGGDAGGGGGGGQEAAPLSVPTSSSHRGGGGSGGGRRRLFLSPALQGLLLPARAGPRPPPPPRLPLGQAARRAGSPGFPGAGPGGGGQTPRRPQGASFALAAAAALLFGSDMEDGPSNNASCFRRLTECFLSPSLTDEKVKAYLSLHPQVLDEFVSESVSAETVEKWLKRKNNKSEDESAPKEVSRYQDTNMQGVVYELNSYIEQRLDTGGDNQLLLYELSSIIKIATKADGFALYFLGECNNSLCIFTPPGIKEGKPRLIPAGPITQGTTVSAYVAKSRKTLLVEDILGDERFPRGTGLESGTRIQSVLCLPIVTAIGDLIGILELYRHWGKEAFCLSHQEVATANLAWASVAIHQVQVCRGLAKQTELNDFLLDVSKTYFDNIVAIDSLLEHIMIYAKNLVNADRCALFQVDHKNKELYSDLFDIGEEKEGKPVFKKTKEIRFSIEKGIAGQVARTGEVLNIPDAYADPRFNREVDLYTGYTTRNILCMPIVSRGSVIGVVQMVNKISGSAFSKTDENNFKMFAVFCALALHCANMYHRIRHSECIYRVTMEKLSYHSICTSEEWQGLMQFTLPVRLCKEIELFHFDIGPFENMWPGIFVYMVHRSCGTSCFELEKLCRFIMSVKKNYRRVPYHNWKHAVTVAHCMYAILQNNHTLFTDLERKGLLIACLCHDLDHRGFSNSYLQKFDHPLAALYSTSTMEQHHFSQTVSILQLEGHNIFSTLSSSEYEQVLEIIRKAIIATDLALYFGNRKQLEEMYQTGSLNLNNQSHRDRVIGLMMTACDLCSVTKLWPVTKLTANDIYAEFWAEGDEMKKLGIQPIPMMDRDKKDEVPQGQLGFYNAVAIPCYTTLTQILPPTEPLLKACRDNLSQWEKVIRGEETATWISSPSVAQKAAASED

[21] = system: Mus musculus; experiment: Anti-inflammatory bowel disease activity in DSS-induced inflammatory bowel disease C57BL/6 mouse model assessed as decrease in IFN-gamma mRNA expression level in colon at 5 mg/kg, iv BID and measured after 8 days by real-time PCR analysis; type: functional, organism-based; settings: time 8.0 day

## COc1c(OCC2CC2)cc2oc3cc4c(c(OCc5ccncc5)c3c(=O)c2c1CC=C(C)C)C=CC(C)(C)O4
[1]
  Ratio IC50: > 2800
[2]
  IC50: > 40 µM
[3]
  IC50: > 10 µM
[4]
  Activity: Active
[5]
  IC50: 0.015 µM
[6]
  MRT last: 1.76 h
[7]
  Ratio IC50: 353
[8]
  Activity: Active
[9]
  IC50: 0.194 µM
[10]
  Ratio IC50: 290
[11]
  Activity: Active
[12]
  IC50: > 10 µM
[13]
  half-life: 7.42 h
[14]
  half-life: 4.18 h
[15]
  IC50: 4.1 µM
[16]
  Ratio IC50: 55
[17]
  Activity: Active
[18]
  IC50: > 25 µM
[19]
  Activity: Active
[20]
  IC50: 1.02 µM
[21]
  Activity: Active
